Residues, ends and D or L forms follow the SMILES beside them. *: point of attachment. e = 2'-O-(2-methoxyethyl) (MOE); Cbz = O=C(OCc1ccccc1)*; d = 2'-deoxy (DNA)
What was measured:
[1] = system: Mesothelial rat primary cells; test: Spontaneous EMT of primary mesothelial cells over culture passages; format: cell-based
Experimental: For primary cell harvesting, 8 ml of HBSS (Lonza, Paris, France) were injected in the pleural cavity through the diaphragm then removed and followed by a 10 ml trypsin 5%, EDTA 0.4% administration for 30 min. This lavage was removed and placed in 30 ml of DMEM (Dulbecco's Modified Eagle Medium, Lonza) with 15% FBS (Fetal Bovine Serum, Lonza). After centrifugation (1300 rpm, 5 minutes), the cell pellet was re-suspended into 5 ml DMEM, FBS 15% and placed at 37° C., 5% CO2.
Mesothelial rat primary cells were grown in Dulbecco's Modified Eagle's Medium (DMEM) 1% L-glutamine, 1% penicillin-streptomycin with 15% Fetal Bovine Serum (FBS. Lonza, Paris, France). Cells were assessed before culture and from passage 1 to 4.
(§1) Protein extraction was made using triton X 100 during 30 min at 4° C., vortexing every 10 min. Protein dosage is made with the modified lowry kit (Biorad, Marne-la-Coquette, France). Equal amounts of protein (30-50 μg) were electrophoresed through 8 to 12% SDS polyacrylamide gels. The separate protein bands were transferred onto a PVDF membrane. The non-specific sites were saturated with a solution of PBS-tween 0.1%, nonfat milk 8%. Membranes were incubated with primary Abs over night at 4° C. Secondary Abs IgG linked to HRP (HorseRadish Peroxidase, Jackson ImmunoResearch Laboratories, PA, USA) were used at a concentration of 1/5000. Enhanced ChemiLuminescent substrat (ECL, santa cruz biotechnology, CA, USA) was used to detect the protein of interest. […]

[2] = system: AdTGF-β1 induced pleural and subpleural fibrosis model in rats; test: AdTGF-β1 induced pleural and subpleural fibrosis model; format: in vivo, rat; conditions: for reduction in the lungs volume compared to AdDL administered animals: RCL2 volume, 10 min at 20 cm H20
Text: For experiments on pleural fibrosis we used AdTGF-β1223/225, an adenovirus construct with a mutant TGF-β1 translated into spontaneously bioactive TGF-β1 (AdTGFβ1) and control vectors (AdDL) with no insert in the deleted E1 region. The construction of adenoviral vectors is described in detail elsewhere (DeCologne, 2007, supra; Bett et al. Proc Natl Acad Sci USA 1994; 91:8802-6; Sime et al., J Clin Invest 1997; 100:768-76)
Female Sprague-Dawley rats (Charles River Laboratories) weighing 200-225 g were housed in special pathogen-free conditions. Rodent laboratory food and water were provided ad libitum. The animals were treated in accordance to the guidelines of the Ministère de la Recherche et de laTechnologie (Paris, France). All experiments were approved by the Comitéd'Ethique de l'Universite´ de Bourgogne (Bourgogne, France). All animal procedures were performed with inhalation anesthesia with isoflurane (TEM, Lormont, France). Adenovector administrations were performed by intrapleural injection in 800 μl of NaCl0.9% containing a total of 1.3×10^9 PFU AdTGF-β1, AdDL or AdLacZ. The intrapleural injection protocol was described in details elsewhere (DeCologne, 2007, supra)).
12 mg/kg of control ASO and OGX-427 were daily administrated by intrapleural injection during 5 days after adenoviral administration. Rats were euthanized by abdominal aortic bleeding and lungs were harvested and processed following what was previously described in Decologne et al (DeCologne, 2007, supra)).
Immunohistochemitry: Inflated lungs were transversally cut and paraffin embedded. 5 μm section were performed and stain with primary antibodies (Ab), Mouse monoclonal anti-α-SMA (Sigma, St Quentin Fallavier, France, 1/200), rabbit polyclonal anti-HSP27 (EnzoLife Science, Villeurbanne, France, 1/200) and rabbit polyclonal cleaved caspase 3 (cell signaling, Saint Quentin, France, 1/100). Secondary Abs used were respectively, a goat anti-mouse IgG biotin conjugated and a goat anti-rabbit IgG biotin conjugated. After peroxidase inhibition (PBS plus H2O2, 20 min), lung section were incubated over night at 4° C. with primary ab. Tissue section were after PBS 1× (Phosphate Buffer Saline) wash incubated with the secondary ab (1/500) 45 min. The streptavidin-HRP complex (Jackson ImmunoResearch Laboratories, PA, USA, 1/500) was used 45 min at room temperature. 3-Amino-9-ethylcarbazole/hydrogen peroxide was used as chromagen substrate. Slides were counterstained with hematoxylin.
Total human TGF-β1 was determined from pleural lavage fluid (PLF) using ELISA (R&D Systems, Lille, France), performed according to the recommendations of the manufacturer. The sensitivity of this assay was 7 pg·mL-1.
To assess the role of HSP27 inhibition in the process of fibrogenesis in vivo, we administered OGX427 or its control ASO in the pleural cavity in our AdTGF-β1 induced pleural and subpleural fibrosis model in rats. The concentrations of ASO control and OGX-427 used were those previously described in studies of bladder cancer where the oligonucleotides were administered intra-vesically. (Matsui et al. Mol Cancer Ther 2009; 8:2402-11)
After AdTGF-β1 or AdDL intrapleural administration, rats were daily treated with the ASO control or OGX427 during […] by intra pleural injection. We first confirmed by an ELISA technique that the content on TGF-β1 after AdTGF-β1 intrapleural administration was similar in the pleural lavage fluid (PLF) from all rats, those treated with OGX427 and those treated with a control ASO (FIG. 4A). […] (FIG. 4B)
To determine lung activity, lung volumes were assessed by measuring the volume of RCL2 (fixation solution) that drained into the lungs after 10 min at a constant pressure of 20 cm H20. Compared to AdDL administered animals, AdTGF-β1 administration in ASO control rats induced a reduction in the lungs volume of 55%. […] This effect for the HSP27 inhibitor was only observed in the TGF-β1-exposed animals. […]

[3] = system: human mesothelial Met-5A cells; test: Induction of HSP27 overexpression in Met-5A cells; format: cell-based
Text: To study the involvement of HSP27 in the EMT process, we induced the overexpression of HSP27 in the human mesothelial Met-5A cells by three different methods: heat shock, staurosporine treatment, and transfection with a plasmid encoding HSP27. […] (Brunet Simioni et al., Oncogene 2009; 28:3332-44) A more specific overexpression was obtained by HSP27 cDNA transfection. […] Conversely, siRNA-meditated depletion of HSP27 inhibits rTGF-β1 induced α-SMA in human […] Met-5A cells and epithelial A549 cells. This decrease in α-SMA content induced by HSP27 depletion seems to be, at least in part, the result of its proteasomal degradation because in the presence of an inhibitor of the proteasome, such as MG132, α-SMA levels were restored

[4] = system: HSP27; conditions: cited from earlier work
[5] = system: human mesothelial Met-5A cells; test: rTGF-β1-induced EMT in Met-5A cells (western blot, RT-PCR); format: cell-based; conditions: HSP27 siRNA-depleted cells plus proteasome inhibitor
Experimental: Mesothelial rat established cell line 4/4 RM4 cells (American Type Culture Collection—ATCC—Rockville, Md.) were seeded in Ham's F10 (Lonza), with FBS 15%. Mesothelial human established cell line MET-5A (ATCC) were seeded in Medium 199 (lonza), 1% L-glutamine, 1% penicillin-streptomycin with 10% FBS. Epithelial human cell line A549 cells (ATCC) and were seeded in Ham's F10 (lonza) with 10% FBS.
For EMT induction and analysis, all the different cells were exposed to their respective medium containing 10 ng/ml recombinant (r)TGF-β1 (R&D system, Lille, France) for 6, 12, 24, or 48 hours.
HSP27 siRNA were purchased from applied bios system (Courtaboeuf, France). The sense and antisense sequence were respectively: 5′-GUUCAAAGCAACCACCUGUtt-3 (SEQ ID No: 4)′ and 5′-ACAGGUGGUUGCUUUGAACtt-3′. (SEQ ID No: 5). They were used at a concentration of 50 nM. SiRNA were transfected using INTERFERin (polyplus, Illkirch, France) following the manufacturer recommendations. 5-6 hours after transfection medium were changed and cells were treated or not with 10 ng/ml TGF-β1 for 12, 24 or 48 hours. Seq ID No. 3 was used as a random control oligonucleotide.
as §1
Total RNA was extracted using TRIzol (Invitrogen, Cergy Pontoise, France) from MET-5A and A549 cells treated or not with rTGF-β1 12 or 24 hours and transfected or not by HSP27 siRNA or plasmid encoding HSP27. […] Quantitative RT-PCR was performed on the cDNA using the SYBR green master mix (promega, Charbonnieres, France). […]

In the case of “OGX-427: 4-12-4 2′-MOE gapmer antisense oligonucleotide with phosphorothiolated linkages targeting HSP27, made by OncoGenex (Seq. ID No. 2) (antisense GGGACGCGGCGCTCGGTCAT; sugars from the 5' end e4 d12 e4, all C 5-methyl, all phosphorothioate, T or U not given here; listed as Homo sapiens)”, the “increased expression of HSP27 with cell passages” value ([1]; vs ASO control) is reported as “blocked”, the “increased expression of α-SMA with cell passages” value ([1]; vs ASO control) is reported as “blocked” and the “cell shape (mesothelial phenotype)” value ([1]; vs control ASO) is reported as “kept their mesothelial phenotypic shape”. The “lung volumes in AdDL-administered animals, ASO control vs OGX 427” value ([2]; AdDL rats (no TGF-β1)) was “no difference”, the “mesothelial cell migration within the subpleural parenchyma” value ([2]; AdTGF-β1 + AdLacZ rats) was “no mesothelial cell migration” and the “morphology of the mesothelial cells” value ([2]; AdTGF-β1 + AdLacZ rats) was “did not change”. For the same compound, the “pleural fibrosis (histological evaluation)” value ([2]; AdTGF-β1 rats) was “minor pleural fibrosis”, the “HSP27 expression in lungs” value ([2]; AdTGF-β1 rats, histology) was “very significant decrease” and the “α-SMA expression in lungs” value ([2]; AdTGF-β1 rats, histology) was “very significant decrease”. The “pleural collagen quantified from microscopic images” value ([2]; AdTGF-β1 rats, vs control antisense) was “substantial reduction”, the “reduction in the lungs volume compared to AdDL administered animals” value ([2]; AdTGF-β1 rats) was 35% and the “HSP27 expression in PLF (western blot)” value ([2]; AdTGF-β1 rats, intra-pleural administration) was “strongly blocked”. The “TGF-β1 content in pleural lavage fluid (ELISA)” value ([2]; after AdTGF-β1 intrapleural, 12 mg/kg daily intrapleural, vs control ASO) was “similar” and the “amount of fibrosis in the pulmonary parenchyma” value ([2]; collagen in parenchymal subpleural areas) was “reduces the amount of fibrosis”.

In the case of “ASO control: control oligonucleotide having the sequence CCTTCCCTGAAGGTTCCTCC, also known as ISIS 141923 (listed as DNA, chemistry not given here)”, the “reduction in the lungs volume compared to AdDL administered animals” value ([2]; AdTGF-β1 rats) is reported as 55%.

In the case of CN[C@@H]1C[C@H]2O[C@@](C)([C@@H]1OC)n1c3ccccc3c3c4c(c5c6ccccc6n2c5c31)C(=O)NC4 [staurosporine], the HSP27 induction [3] is reported as “efficient inducers of HSP27” and the α-SMA expression/content ([3]; after HSP27 overexpression) is reported as “increase”.

For “interferon-γ: cytokine shown to downregulate expression of HSP27”, the HSP27 expression/levels [4] is given as “downregulate expression of HSP27”.

With CC(C)C[C@@H](C=O)NC(=O)[C@H](CC(C)C)NC(=O)[C@H](CC(C)C)NC(=O)OCc1ccccc1 [MG132] (Cbz-Leu-Leu-Leu-aldehyde) the “α-SMA levels after HSP27 depletion” value [5] was “restored”.

For CC(=O)O[C@H]1C(=O)[C@@]2(C)[C@H]([C@H](OC(=O)c3ccccc3)[C@]3(O)C[C@H](OC(=O)[C@H](O)[C@@H](NC(=O)c4ccccc4)c4ccccc4)C(C)=C1C3(C)C)[C@]1(OC(C)=O)CO[C@@H]1C[C@@H]2O [Paclitaxel], the HSP27 expression/levels [4] is listed as “inhibitor of hsp27 expression”.
